This is an account of results in ChEMBL document CHEMBL3507680, “University of Dundee, Gates Library screen for HepG2 cell viability”.

A short description of the series: Human HepG2 cell viability assay in 384 well format. It counts as toxicity, cell-based. The following applies: HepG2 cells, read-out: Inhibition. Further details: dose 125 nL, time 70.5 hour; concentration not given beside the values.

`CCN(CC)S(=O)(=O)c1cc(Br)ccc1OC`: the cytotoxicity at 70.5 h was -7.07%.
The value for `CN1CCOC(CNCC(=O)NCCc2ccc3c(c2)OCCO3)C1` (centres undefined) was 4.64%.
The value for `CC(C)c1nn(C)cc1CNCc1cccc(N(C)C)c1` was 6.7%; that for `CCc1ccc(C(=O)NC[C@H]2CCCN2C(=O)c2ccc(CC)o2)o1` was 2.7%.
The value for `CCN(Cc1ccc(N(C)C)cc1)S(=O)(=O)c1cc(Br)ccc1OC` was -1.59%; that for `CCOc1ccc(Br)cc1S(=O)(=O)N(CC)Cc1ccc(N(C)C)cc1` was -3.07%.
Regarding `Cc1cc(NC(=O)C2CCN(c3nnc(C)c(C)c3C#N)CC2)no1`, the cytotoxicity at 70.5 h came out at 0.58%.
The figure for `COc1cc(CNC(=O)COC2CCCC2)ccc1O` is -4.4%.
The value for `Cc1cc(NC(=O)NCCC(=O)N2CCCc3ccccc32)no1` was -6.7%; that for `CCN(CC)S(=O)(=O)NC1CCN(c2ccc(OC)cc2)CC1` was -3.82%; that for `COc1ccc(N2CCC(NS(=O)(=O)N(C)C(C)C)CC2)cc1` was 7.03%.
The value for `CCN(CCNC(=O)Nc1nnc(C)s1)C(=O)OC(C)(C)C` was -5.88%; that for `Cc1nc(CN2CCN(S(=O)(=O)N3CCCCC3)CC2)oc1C` was -4.75%; that for `COCCN(C)C(=O)NCCc1coc(-c2ccc(C)cc2)n1` was 7.28%.
As to `Cc1ccc(N2CCCN(C(=O)CCc3ccsc3)CC2)nn1`, the cytotoxicity at 70.5 h is -6.07%.
The value for `CN1CCCC(CNC(=O)CN(C)S(=O)(=O)c2cccnc2)C1` (centres undefined) was 6.09%; that for `Cc1noc(C)c1CNC(=O)NCCC(=O)N1CCCc2ccccc21` was 3.77%.
For `CC(C)N(C(=O)Cn1cc(Cl)cn1)c1ccccc1`, the cytotoxicity at 70.5 h was -4.68%.
As to `CN1CCN(CCOc2ccc(NC(=O)c3cnc[nH]3)cc2)CC1`, the cytotoxicity at 70.5 h was 6.08%.
For the compound `CN1CCN(CCOc2ccc(NC(=O)c3ccoc3)cc2)CC1`, the cytotoxicity at 70.5 h is -4.12%.
The value for `Cc1cc(CNC(=O)NCCC(=O)N2CCCc3ccccc32)no1` was 7.7%.
The figure for `CCC(C(=O)NCCc1coc(-c2ccc(C)cc2)n1)N(C)C` (centres undefined) is 3.11%; for `Cc1nc(CN2CCN(S(=O)(=O)N3CCOCC3)CC2)oc1C` it is -3.19%; for `OCCN1CCC(CNCc2cn(-c3ccccc3)nn2)CC1` it is -12.5%.
Regarding `COCCCn1ccc(NC2CCOCC2)n1`, the cytotoxicity at 70.5 h was -7.45%.
Consider `CN(CC(=O)NCCC#N)C(c1ccccc1)c1ccccc1`, for which the cytotoxicity at 70.5 h is -14.5%.
The value for `O=C(c1sccc1Br)N1CCOCC1` was -15.9%.
The figure for `CN(CC(N)=O)Cc1cc(Cl)cc2cccnc12` is -8.6%.
For the compound `CN(Cc1nc2ccccc2[nH]1)C(=O)C(C)(C)n1cc(Cl)cn1`, the cytotoxicity at 70.5 h is -12.7%.
The figure for `CC(O)CN1CCC(CNCc2cn(-c3ccccc3)nn2)CC1` (centres undefined) is -9.21%; for `CC(C)(C(=O)NCCCc1nc2ccccc2[nH]1)n1cc(Cl)cn1` it is -5.61%; for `CS(=O)(=O)NCCNC(=O)c1ccc(OCc2ccccc2)nc1` it is -9.1%.
Regarding `CCC(C)(C)NC(=O)c1ccc(NC(=O)NCc2cc(C)no2)cc1`, the cytotoxicity at 70.5 h is -0.597%.
The value for `Cn1ncc2c(=O)[nH]c(N3CCCC3c3cccs3)nc21` (centres undefined) was 17.2%; that for `c1ccc(-c2nc(SCc3nnc(C4CC4)o3)n[nH]2)nc1` was -4.88%; that for `CCc1noc(CSc2n[nH]c(-c3ccccn3)n2)n1` was -3.21%.
As to `N#CC1COCCN1S(=O)(=O)c1ccc2c(c1)CCC2` (centres undefined), the cytotoxicity at 70.5 h is -8.31%.
In the case of `CN(C)CCn1cc(NC(=O)NC(C)(C)c2nccs2)cn1`, the cytotoxicity at 70.5 h was -3.3%.
The figure for `CCc1nc(CC)n(CC(=O)N(C)CC(F)(F)F)n1` is -4.55%.
For the compound `CC(NC(=O)NCC(C)(C)O)c1ccc(-c2cncnc2)cc1` (centres undefined), the cytotoxicity at 70.5 h came to 19.1%.
The value for `CC(NC(=O)NCC(C)(C)O)c1ccc(-c2ccncc2)cc1` (centres undefined) was -1.45%; that for `CC(C)Sc1ccc(N2CCN(Cc3ccccn3)CC2)nn1` was -12.7%; that for `COc1ncnc(N(C)C)c1NC(=O)c1cscc1C` was -9.9%.
The figure for `CC(C)CCN(c1cn[nH]c1)S(=O)(=O)c1cccc(C#N)c1` is 18.2%.
The figure for `Cc1ccc(C(C)NCCc2nccn2Cc2ccccc2)o1` (centres undefined) is -10.1%; for `Cc1nc(CN(C)C2CCN(CC(=O)N(C)CCC#N)C2)no1` (centres undefined) it is 0.0577%; for `O=C1CCCN1CCN1CCCCC1Cn1cncn1` (centres undefined) it is 17.7%.
In the case of `CCc1c(NCc2ccc(F)cc2)cnn1CC(C)C`, the cytotoxicity at 70.5 h is -6.17%.
For `COc1ccc(-c2nnc(C(C)N3CCOCC3)o2)cc1` (centres undefined), the cytotoxicity at 70.5 h is -2.92%.
For `N#Cc1ccnc(N2CCN(C3CCOC3=O)CC2)c1` (centres undefined), the cytotoxicity at 70.5 h came out at 14.2%.
Take `CCOc1ccc(Cl)c(C(=O)NC(Cc2ccccc2)C(N)=O)n1` (centres undefined): the cytotoxicity at 70.5 h was -1.23%.
The value for `COc1ccc(-c2nnc(C(C)N3CCOC(C)(C)C3)o2)cc1` (centres undefined) was -5.79%; that for `CCc1ccsc1C(=O)NC(Cc1ccccc1)C(N)=O` (centres undefined) was -6.72%; that for `Cc1cc(S(C)(=O)=O)c(C)c(S(=O)(=O)NCC2CCC2)c1` was -9.88%.
The figure for `Cc1cc(NC(=O)N2CCN(C)CC2C)n(Cc2ccccc2)n1` (centres undefined) is -9.75%; for `COc1ccccc1NCC(=O)NCc1scnc1C` it is 13.6%; for `Cc1cc(NC(=O)N(C)CCN2CCN(c3ccccc3)CC2)on1` it is -2.89%.
The figure for `Cc1cc(NC(=O)NC(C)CN2CCN(c3ccccc3)CC2)on1` (centres undefined) is -5.02%; for `COCC1CN(c2ccc(Cl)cc2C#N)CCO1` (centres undefined) it is -7.05%; for `NC(=O)c1ccc(N2CCN(Cc3ccc(F)cc3Cl)CC2)nn1` it is -9.22%.
For the compound `COC(=O)c1cccc(CNC(=O)CCC(F)(F)F)c1`, the cytotoxicity at 70.5 h was -3.83%.
The figure for `COc1cc(CNCCC(N)=O)c2c(c1)CC(C)O2` (centres undefined) is -0.966%; for `N#Cc1cccn(CCOc2ccc(Cl)cc2)c1=O` it is -1.43%; for `COCC1CN(c2ccc(C#N)c(Cl)c2)CCO1` (centres undefined) it is 21.2%.
Consider `COc1cc(CNCCn2cc(C)cn2)c2c(c1)CC(C)O2` (centres undefined), for which the cytotoxicity at 70.5 h was -8.44%.
The figure for `COc1cc(CNCCn2cccn2)c2c(c1)CC(C)O2` (centres undefined) is 7.89%; for `CC(C)c1csc(C(=O)N(C)c2ccc(Br)cn2)n1` it is -3.47%; for `CC1COC2(CCN(C(=O)c3ncoc3C(C)C)CC2)O1` (centres undefined) it is 11.1%.
The value for `Cc1nn(C)c(N2CCOCC2)c1CNCC1CCS(=O)(=O)C1` (centres undefined) was -10.2%; that for `O=C(NCCNc1ncccn1)NCc1cccc(OC(F)F)c1` was 18.9%; that for `CN(C)c1ncccc1CNC(=O)NCc1ccco1` was 0.432%.
The figure for `CNC(=O)Cc1ccccc1NC(=O)NCc1ccc(SC)cc1` is 19.8%; for `Cc1n[nH]cc1CNCc1cccc(OCC(F)(F)F)c1` it is -0.995%; for `Cc1n[nH]cc1CNCc1ccnc(OCC(F)(F)F)c1` it is -7.14%.
